Molecular target: T1, hGPR120 (Homo sapiens, UniProt Q5NUL3)
T1 construct: expressed in transfected cells; host or cells: CHO-K1
T1 sequence (Q5NUL3 1-361): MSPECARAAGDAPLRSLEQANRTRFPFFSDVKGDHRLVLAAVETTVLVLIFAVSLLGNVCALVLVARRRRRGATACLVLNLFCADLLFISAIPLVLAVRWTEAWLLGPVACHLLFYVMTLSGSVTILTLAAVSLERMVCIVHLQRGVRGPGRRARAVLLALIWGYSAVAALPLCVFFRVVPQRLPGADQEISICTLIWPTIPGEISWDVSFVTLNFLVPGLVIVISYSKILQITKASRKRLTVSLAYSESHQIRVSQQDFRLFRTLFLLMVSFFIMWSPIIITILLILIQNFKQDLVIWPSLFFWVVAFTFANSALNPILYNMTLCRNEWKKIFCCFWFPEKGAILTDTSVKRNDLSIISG
Assay: Measurement of Activity of GPR120 Agonist (Cell-Based Assay), Calcium 5 dye fluorescence
Details: CHO-K1 cells expressing Ga16 and hGPR120
In short: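 Gα16/hGPR120 CHO-K1; 18 h plating, 37 °C, 5% CO2; Calcium 5 dye load 1 h; agonist serial dilution, 0.5% DMSO final; fluor Ex485/Em525; response as % of 1% DMSO vehicle.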

Row | EC50 [nM] | Structure (SMILES)
1 | 2000 to 20000 | O=C(O)CCCOc1c(F)cc(-c2ccc3cc[nH]c3c2)cc1F [Example 557, 4-[2,6-difluoro-4-(1H-indol-6-yl)-phenoxy]-butanoic acid]
2 | 200 to 2000 | COCCCOc1ccnc(-c2cc(F)c(N3CCC(CC(=O)O)CC3)c(F)c2)n1 [Example 600, (1-{2,6-difluoro-4-[4-(3-methoxy-propoxy)-pyrimidin-2-yl]-phenyl}-piperidin-4-yl)-acetic acid]
3 | 200 to 2000 | O=C(O)CC1CCN(c2c(F)cc(-c3cccc(OCC4CCC4)n3)cc2F)CC1 [Example 308, 2-[1-[4-[6-(cyclobutylmethoxy)-2-pyridyl]-2,6-difluoro-phenyl]-4-piperidyl]acetic acid]
4 | 200 to 2000 | O=C(O)CCCOc1ccc(-c2cccc3c2OC2(CCCC2)O3)cc1F [Example 289, 4-(2-fluoro-4-spiro[1,3-benzodioxol-2,1′-cyclopentan]-4-yl-phenoxy)butanoic acid]
5 | < 200 | CC(CCCC(=O)O)c1c(F)cc(-c2ccccc2NC2CCCC2)cc1F (racemic) [Example 47, 5-(2′-cyclopentylamino-3,5-difluoro-bisphenyl-4-yl)hexanoic acid]
6 | < 200 | O=C(O)CCCC(F)(F)c1ccc(-c2cccnc2OC2CCCC2)cc1 [Example 177, 5-[4-(2-cyclopentyloxy-pyridin-3-yl)-phenyl]-5,5-difluoro-pentanoic acid]
7 | < 200 | COc1ccc2c(ccn2-c2cc(F)c(OCCCC(=O)O)c(F)c2)c1 [Example 468, 4-[2,6-difluoro-4-(5-methoxyindol-1-yl)phenoxy]butanoic acid]
8 | 200 to 2000 | CCN(CCCC(=O)O)c1c(F)cc(-c2cccnc2OCC2CCC2)cc1F [Example 225, 4-{[4-(2-cyclobutylmethoxy-pyridin-3-yl)-2,6-difluoro-phenyl]-ethyl-amino}-butyric acid]
9 | < 200 | CC(C)Sc1ncccc1-c1ccc2c(c1)CCC(CCC(=O)O)O2 (stereo not shown) [Example 7, 3-[6-(2-isopropylsulfanyl-pyridin-3-yl)-chroman-2-yl]-propionic acid]
10 | < 200 | CN(CCCC(=O)O)c1ccc(-c2cccnc2SC2CCCC2)cc1F [Example 213, 4-{[4-(2-cyclopentylsulfanyl-pyridin-3-yl)-2-fluoro-phenyl]-methyl-amino}-butyric acid]
11 | < 200 | CN(CCCC(=O)O)c1c(F)cc(-c2cncc(OCC3CC3)n2)cc1F [Example 491, 4-[4-[6-(cyclopropylmethoxy)pyrazin-2-yl]-2,6-difluoro-N-methyl-anilino]butanoic acid]
12 | 200 to 2000 | CN(CCCC(=O)O)c1c(F)cc(-c2cccc(N3CCCC3)n2)cc1F [Example 467, 4-[2,6-difluoro-N-methyl-4-(6-pyrrolidin-1-yl-2-pyridyl)anilino]butanoic acid]
13 | 200 to 2000 | CC(C)Nc1cncc(-c2cc(F)c(N3CCC(CC(=O)O)CC3)c(F)c2)n1 [Example 354, 2-[1-[2,6-difluoro-4-[6-(isopropylamino)pyrazin-2-yl]phenyl]-4-piperidyl]acetic acid]
14 | < 200 | CCCOc1cc(C)nc(-c2cc(F)c(N3CCC(CC(=O)O)C3)c(F)c2)n1 (stereo not shown) [Example 589, {1-[2,6-difluoro-4-(4-methyl-6-propoxy-pyrimidin-2-yl)-phenyl]-pyrrolidin-3-yl}-acetic acid]
15 | 200 to 2000 | CC(C)Sc1cccc(-c2cc(F)c(-n3cc(CC(=O)O)cn3)c(F)c2)n1 [Example 123, 2-[1-[2,6-difluoro-4-(6-isopropylsulfanyl-2-pyridyl)phenyl]pyrazol-4-yl]acetic acid]
16 | < 200 | O=C(O)CCCCc1ccc(-c2cccnc2SC2CCCC2)cc1 [Example 29, 5-[4-(2-cyclopentylsulfanyl-3-pyridyl)phenyl]pentanoic acid]

The next lines start with the compound.

Row | Structure (SMILES) | EC50 [nM]
17 | O=C(O)CC1CCN(c2c(F)cc(-c3cccnc3OC3CCOC3)cc2F)CC1 (stereo not shown) [Example 103, 2-[1-[2,6-difluoro-4-(2-tetrahydrofuran-3-yloxy-3-pyridyl)phenyl]-4-piperidyl]acetic acid] | 200 to 2000
18 | CC(C)Sc1ncccc1-c1cc(F)c(N2CC[C@@H](CC(=O)O)C2)c(F)c1 [Example 136, 2-[(3S)-1-[2,6-difluoro-4-(2-isopropylsulfanyl-3-pyridyl)phenyl]pyrrolidin-3-yl]acetic acid] | < 200
19 | O=C(O)CCCOc1c(F)cc(-c2cccc3c2OC2(CCCC2)C3)cc1F [Example 261, 4-(2,6-difluoro-4-spiro[3H-benzofuran-2,1′-cyclopentan]-7-yl-phenoxy)-butyric acid] | < 200
20 | O=C(O)CCCOc1c(F)cc(-c2cncc(OCC3CC3)n2)cc1F [Example 434, 4-[4-(6-cyclopropylmethoxy-pyrazin-2-yl)-2,6-difluoro-phenoxy]-butyric acid] | < 200
21 | O=C(O)CCCCc1c(F)cc(-c2cccnc2OC2CCCC2)cc1F [Example 37, 5-[4-(2-cyclopentoxy-3-pyridyl)-2,6-difluoro-phenyl]pentanoic acid] | < 200
22 | O=C(O)CC1CCN(c2c(F)cc(-c3cccc(OCC(F)(F)F)n3)cc2F)CC1 [Example 315, 2-[1-[2,6-difluoro-4-[6-(2,2,2-trifluoroethoxy)-2-pyridyl]phenyl]-4-piperidyl]acetic acid] | 200 to 2000
23 | O=C(O)COCC(F)(F)c1ccc(-c2cccc(OC3CCC3)n2)cc1 [Example 174, {2-[4-(6-cyclobutoxy-pyridin-2-yl)-phenyl]-2,2-difluoro-ethoxy}-acetic acid] | 200 to 2000
24 | O=C(O)CCC1CCc2cc(-c3cncc(OC4CCC4)n3)ccc2S1 (stereo not shown) [Example 507, 3-[6-(6-cyclobutoxy-pyrazin-2-yl)-thiochroman-2-yl]-propionic acid] | 200 to 2000
25 | O=C(O)CC1CCN(c2c(F)cc(-c3csc(OC4CCC4)n3)cc2F)C1 (stereo not shown) [Example 582, {1-[4-(2-cyclobutoxy-thiazol-4-yl)-2,6-difluoro-phenyl]-pyrrolidin-3-yll}-acetic acid] | 200 to 2000
26 | O=C(O)CC1CN(c2c(F)cc(-c3cccc(OC4CCC4)n3)cc2F)C1 [Example 321, 2-[1-[4-[6-(cyclobutoxy)-2-pyridyl]-2,6-difluoro-phenyl]azetidin-3-yl]acetic acid] | < 200
27 | c1cnc(SC2CCC2)c(-c2ccc(CCCc3nnn[nH]3)cc2)c1 [Example 26, 2-cyclobutylsulfanyl-3-{4-[3-(1H-tetrazol-5-yl)propyl]phenyl}pyridine] | 200 to 2000
28 | O=C(O)CCCOc1c(F)cc(-c2ccc(Cl)c(OC3CCC3)n2)cc1F [Example 533, 4-[4-(5-chloro-6-cyclobutoxy-pyridin-2-yl)-2,6-difluoro-phenoxy]-butyric acid] | 200 to 2000
29 | CC(C)Sc1cccc(-c2ccc(C(F)(F)CCCC(=O)O)cc2)n1 [Example 192, 5,5-difluoro-5-[4-(6-isopropylsulfanyl-pyridin-2-yl)-phenyl]-pentanoic acid] | < 200
30 | CC1(C)Cc2cc(F)cc(-c3cc(F)c(OCCCC(=O)O)c(F)c3)c2N1 [Example 266, 4-[2,6-difluoro-4-(5-fluoro-2,2-dimethyl-2,3-dihydro-1H-indol-7-yl)-phenoxy]-butyric acid] | 200 to 2000
31 | O=C(O)CCCOc1c(F)cc(-c2cc(OC3CCC3)cc(Cl)n2)cc1Cl [Example 424, 4-[2-chloro-4-(6-chloro-4-cyclobutoxy-pyridin-2-yl)-6-fluoro-phenoxy]-butyric acid] | < 200
32 | CCCCc1cncc(-c2cc(F)c(N3CCC(CC(=O)O)CC3)c(F)c2)n1 [Example 369, 2-[1-[4-(6-butylpyrazin-2-yl)-2,6-difluoro-phenyl]-4-piperidyl]acetic acid] | < 200
33 | CC(CCCC(=O)O)c1c(F)cc(-c2cc(F)cc(OC3CCC3)c2)cc1F (stereo not shown) [Example 411, 5-(5′-cyclobutoxy-3,5,3′-trifluoro-biphenyl-4-yl)-hexanoic acid] | < 200
34 | CCOc1ccnc(-c2cc(F)c(N3CCC(CC(=O)O)CC3)c(F)c2)n1 [Example 345, 2-[1-[4-(4-ethoxypyrimidin-2-yl)-2,6-difluoro-phenyl]-4-piperidyl]acetic acid] | < 200
35 | CC(C)Oc1cccc(-c2cc(F)c(N3CCC(CC(=O)O)CC3)c(F)c2)n1 [Example 296, 2-[1-[2,6-difluoro-4-(6-isopropoxy-2-pyridyl)phenyl]-4-piperidyl]acetic acid] | < 200
36 | CC(C)(C)Sc1cccc(-c2ccc3c(c2)CCC(CCC(=O)O)O3)n1 (stereo not shown) [Example 451, 3-[6-(6-tert-butylsulfanyl-2-pyridyl)chroman-2-yl]propanoic acid] | < 200
37 | CN(CCCC(=O)O)c1c(F)cc(-c2ccccc2N2CCCC2)cc1F [Example 221, 4-[(3,5-difluoro-2′-pyrrolidin-1-yl-biphenyl-4-yl)-methyl-amino]-butyric acid] | < 200
38 | O=C(O)CC1CCN(c2c(F)cc(-c3nc(OCC4CC4)cs3)cc2F)CC1 [Example 377, {1-[4-(4-cyclopropylmethoxy-thiazol-2-yl)-2,6-difluoro-phenyl]-piperidin-4-yl}acetic acid] | < 200
39 | O=C(O)CCCOc1c(F)cc(-n2ccc3cccc(Cl)c32)cc1F [Example 472, 4-[4-(7-chloroindol-1-yl)-2,6-difluoro-phenoxy]butanoic acid] | < 200
40 | CN(CCCC(=O)O)c1c(F)cc(-c2cccc(SC3CCC3)n2)cc1F [Example 202, 4-{[4-(6-cyclobutylsulfanyl-pyridin-2-yl)-2,6-difluoro-phenyl]-methyl-amino}-butyric acid] | < 200
